The record followed here is patent US11766447B2, “3′3′-cyclic dinucleotide analogue comprising a cyclopentanyl modified nucleotide as sting modulator” (INSTITUTE OF ORGANIC CHEMISTRY AND BIOCHEMISTRY ASCR, V.V.I., priority 2019, dated 2023).

For assay [1], the target named is T1, WT STING (Homo sapiens, UniProt Q86WV6, H232R). The assay is described as follows: Differential scanning fluorimetry (DSF) with WT STING. Particulars: thermal shift vs apoprotein; 150 μM CDN; truncated human WT STING 0.1 mg/ml. The arrangement: 8xHis (N, cleaved yes); SUMO (N, cleaved yes); made in house; host or cells: E. coli Rosetta-gami B (DE3). The class given is binding. The protocol: (§1) Purified PCR products were cleaved with restriction enzymes BamHI (cat. #R0136S, NEB, Ipswich, USA) and NotI (cat. #R0189S, NEB, Ipswich, USA) and cloned into the pSUMO vector linearized with the identical enzymes.
(§2) DNase I (cat. #D5025, Sigma Aldrich, Czech Republic) and RNase A (cat. #R6513, Sigma Aldrich, Czech Republic) were added (final concentration 50 μg/ml) together with MgCl2 (final concentration 5 mmol·l^−1) to the homogenate and bacteria were lysed using French Press G-M™ High-Pressure Cell Press Homogenizer (1500 psi, 3 cycles). […] The resin was poured into a chromatography column, washed with 50 ml buffer A (50 mmol·l^−1 TrisCl (pH 8.0), 800 mmol·l^−1 NaCl, 3 mmol·l^−1 β-mercaptoethanol; 10% glycerol; 20 mmol·l^−1 imidazol) and 8-His-SUMO tagged STING proteins were eluted with 15 ml buffer A containing 300 mmol·l^−1 imidazole. […] Proteins were concentrated with Amicon® Ultra-15 10 K device (cat. #UFC901008, Merck Millipore, Billerica, USA) and flash frozen in liquid N2.
(§3) 20 μL solutions of the reaction mixtures were pipetted in triplicates into 96 well optical reaction plates and thermal denaturation of samples were performed on real time PCR cycler (LightCycler® 480 Instrument II—Roche, Basel, Switzerland). The first derivative of the thermal denaturation curves was performed to calculate denaturing temperatures of STING-CDN complexes and STING apoproteins. The thermal shift for each CDN was calculated by subtracting the average denaturing temperature of STING apoprotein from the average denaturing temperature of STING CDN complex.
Target sequence in this assay (Q86WV6 140-343 H232R): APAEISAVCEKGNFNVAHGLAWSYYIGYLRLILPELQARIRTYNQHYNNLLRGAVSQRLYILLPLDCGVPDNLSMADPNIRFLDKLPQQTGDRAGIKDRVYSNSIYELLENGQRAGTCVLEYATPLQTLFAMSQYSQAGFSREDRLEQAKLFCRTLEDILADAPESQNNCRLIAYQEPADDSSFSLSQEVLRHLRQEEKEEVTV
For orientation: In DSF a fluorescence change marks the thermal transition of the protein.

For assay [2], the target named is T1, WT STING. The experiment in a line: Digitonin assay using 293T wtSTING-FL reporter cells. The arrangement: host or cells: 293T (ATCC CRL-3216), stably transfected, with 4xISRE firefly luciferase reporter. The assay is classed as cell-based. As to conditions: 293T wtSTING-FL cells, ISRE firefly luciferase; compounds in Digitonin buffer 30 minutes, then 5 hours; 8-point curve. The text has this:
Two complementary oligonucleotides of the sequence […] […] […] […] […] The oligonucleotides were mixed in equal molar amounts, hybridized, and cleaved by restriction endonucleases HindIII (cat. #. R0104S, NEB, Ipswich, USA) and BglII (cat. #R0144S, NEB, Ipswich, USA). Ultimately, they were ligated into plasmid pGL4.27 (cat. #E6651, Promega, Madison, USA) linearized with the same enzymes. As result the sequence with four ISRE sites was placed upstream of the minimum promoter of firefly luciferase reporter gene.
After 5 minutes incubation at room temperature (RT), 250 μL of the mixture was added dropwise to the cells in one well. Cells were incubated 36 hours at 37° C. with 5% CO2, and then detached with 0.05% Trypsin and 0.22 g/L EDTA (both cat. #L0941, Biowest, Riverside, USA).
Transfected cells were seeded onto poly-D-lysine coated six well plates at density 50,000 cells per 1 cm^2 in DMEM medium with high glucose containing 10% heat inactivated FBS, 30 μg/mL blasticidin (cat. #ant-b1-05, InvivoGen, San Diego, USA), 0.06 mg/ml Penicillin G and 0.1 mg/ml Streptomycin Sulfate (both cat. #. L0018, Biowest, Riverside, USA). The medium was replenished every 3-4 days until visible colonies of cells resistant to blasticidin were formed.
Blasticidin resistant cells stably expressing WT STING were further transfected with […] plasmid following the same procedure as described above. […] Homogeneous culture of stably double transfected cells was prepared by limiting dilution of cells in 96 well plates and wells with cells were selected that originated from a single cell.
The medium was removed next day and three fold serial dilutions of compounds in Digitonin buffer containing 50 mmol·l^−1 HEPES (cat. #H3375, Sigma Aldrich, Czech Republic) pH 7.0, 100 mmol·l^−1 KCl, 3 mmol·l^−1 MgCl2, 0.1 mmol·l^−1 DTT (cat. #D0632, Sigma Aldrich, Czech Republic), 85 mmol·l^−1 Sucrose (cat. #S7903, Sigma Aldrich, Czech Republic), 0.2% BSA (cat. #A2153, Sigma Aldrich, Czech Republic), 1 mmol·l^−1 ATP (cat. #A1852, Sigma Aldrich, Czech Republic), 0.1 mmol·l^−1 GTP (cat. #G8877, Sigma Aldrich, Czech Republic), and 10 μg/mL Digitonin A (cat. #D141, Sigma Aldrich, Czech Republic) were added to the cells. The buffer was removed after 30 minutes incubation at 37° C. with 5% CO2, the cells were washed once with 100 μl of cultivation medium, and 100 μl of medium was added to each well. The plates with cells were incubated for 5 hours at 37° C. with 5% CO2, 50 μl of the medium was removed and 30 μl of ONE-Glo™ Luciferase Assay System reagent (cat. #E6120, Promega, Madison, USA) was added to each well. Luminescence was read on Synergy H1 (Biotek, Winooski, USA). GraphPad Prism (La Jolla, USA) was used to calculate the 50% effective concentration ([…] from an 8-point dose-response curve.
Target sequence in this assay (Q86WV6 whole entry H232R, the tested form may be a part): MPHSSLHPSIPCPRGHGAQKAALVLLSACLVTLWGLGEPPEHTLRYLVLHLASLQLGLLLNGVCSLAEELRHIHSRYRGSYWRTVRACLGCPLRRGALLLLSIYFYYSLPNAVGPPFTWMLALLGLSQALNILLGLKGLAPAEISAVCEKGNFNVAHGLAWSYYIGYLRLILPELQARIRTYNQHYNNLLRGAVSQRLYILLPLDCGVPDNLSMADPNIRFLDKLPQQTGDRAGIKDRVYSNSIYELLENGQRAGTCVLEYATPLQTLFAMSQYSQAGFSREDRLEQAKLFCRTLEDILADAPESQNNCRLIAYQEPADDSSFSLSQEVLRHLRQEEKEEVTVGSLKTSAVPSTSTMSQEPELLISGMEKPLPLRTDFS

The target in the next assay is T2, AQ STING (G230A-R293Q) (Homo sapiens, UniProt Q86WV6, G230A/H232R/R293Q).
T2 construct: 8xHis (N, cleaved yes); SUMO (N, cleaved yes); made in house; host or cells: E. coli Rosetta-gami B (DE3)
T2 sequence (Q86WV6 140-343 G230A/H232R/R293Q): as the sequence (Q86WV6 140-343 H232R) above, with G91A, R154Q counted along it
The experiment in a line: Differential scanning fluorimetry (DSF) with AQ STING. The assay is classed as binding. Particulars: thermal shift vs apoprotein; 150 μM CDN; truncated human AQ STING 0.1 mg/ml. The procedure: as §1, §2, §3

Regarding `COC1C2OP(=O)(O)OC[C@H]3C[C@@H](n4cnc5c(N)ncnc54)C(O)C3OP(=O)(O)OC[C@H]2O[C@H]1n1cnc2c(=O)[nH]c(N)nc21` (stereo partly drawn) [Compound 114, 2-amino-9-((2R,3R,3aR,7aR,9R,10S,10aR,14aR)-9-(6-amino-9H-purin-9-yl)-5,10,12-trihydroxy-3-methoxy-5,12-dioxidodecahydro-2H-cyclopenta[d]furo[3,2-j][1,3,7,9]tetraoxa[2,8]diphosphacyclododecin-2-yl)-1,9-dihydro-6H-purin-6-one], the ΔTm at 150 µM on WT STING [1] was found to be 0.4 °C; at AQ STING (G230A-R293Q), 4.6 °C. Moreover, the EC50 on WT STING [2] stood at 21.8 µM.
The like results for `Nc1nc2c(ncn2[C@H]2CC3OP(=O)(O)OC[C@H]4O[C@@H](n5cnc6c(N)ncnc65)C(O)C4OP(=O)(O)OC[C@H]3C2)c(=O)[nH]1` (stereo partly drawn) [Compound 115, (6R,8R,15R,17R)-17-(2-amino-6-oxo-6,9-dihydro-1H-purin-9-yl)-8-(6-amino-9H-purin-9-yl)-3,9,12-trihydroxy-2,4,7,11,13-pentaoxa-3λ^5,12λ^5-diphosphatricyclo[13.3.0.0^6,10]octadecane-3,12-dione] were, in that order, 3.8 °C, 10.5 °C and 0.07 µM.
The like results for `Nc1nc2c(ncn2[C@H]2CC3OP(=O)(O)OC[C@H]4O[C@@H](n5cnc6c(N)ncnc65)C(F)C4OP(=O)(O)OC[C@H]3C2)c(=O)[nH]1` (stereo partly drawn) [Compound 116, (6R,8R,15R,17R)-17-(2-amino-6-oxo-6,9-dihydro-1H-purin-9-yl)-8-(6-amino-9H-purin-9-yl)-9-fluoro-3,12-dihydroxy-2,4,7,11,13-pentaoxa-3λ^5,12λ^5-diphosphatricyclo[13.3.0.0^6,10]octadecane-3,12-dione] were, in that order, 8.5 °C, 13.1 °C and 0.007 µM.
The like results for `Nc1nc2c(ncn2[C@H]2CC3OP(=O)(O)OC[C@H]4O[C@@H](n5cnc6c(N)ncnc65)CC4OP(=O)(O)OC[C@H]3C2)c(=O)[nH]1` (stereo partly drawn) [Compound 117, (6R,8R,15R,17R)-17-(2-amino-6-oxo-6,9-dihydro-1H-purin-9-yl)-8-(6-amino-9H-purin-9-yl)-3,12-dihydroxy-2,4,7,11,13-pentaoxa-3λ^5,12λ^5-diphosphatricyclo[13.3.0.0^6,10]octadecane-3,12-dione] were, in that order, 2.2 °C, 7.1 °C and 0.2 µM.
Turning to `Nc1nc2c(ncn2[C@@H]2C[C@@H]3COP(=O)(O)OC4C(F)[C@H](n5cnc6c(=O)[nH]c(N)nc65)O[C@@H]4COP(=O)(O)OC3C2O)c(=O)[nH]1` (stereo partly drawn) [Compound 122, 9,9′-((2R,3R,3aR,7aR,9R,10S,10aR,14aR)-3-fluoro-5,10,12-trihydroxy-5,12-dioxidodecahydro-2H-cyclopenta[d]furo[3,2-j][1,3,7,9]tetraoxa[2,8]diphosphacyclododecine-2,9-diyl)bis(2-amino-1,9-dihydro-6H-purin-6-one)], the ΔTm at 150 µM at WT STING [1] amounted to 3.5 °C; at AQ STING (G230A-R293Q), 9.5 °C. For the same molecule, the EC50 on WT STING [2] is 1.6 µM.
The like results for `Nc1nc2c(ncn2[C@H]2CC3OP(=O)(O)OC[C@H]4C[C@@H](n5cnc6c(=O)[nH]c(N)nc65)C(O)C4OP(=O)(O)OC[C@H]3C2)c(=O)[nH]1` (stereo partly drawn) [Compound 123, 9,9′-((2R,3S,3aR,7aR,9R,10aS,14aR)-3,5,12-trihydroxy-5,12-dioxidododecahydrodicyclopenta[d,j][1,3,7,9]tetraoxa[2,8]-diphospha-cyclododecine-2,9-diyl)bis(2-amino-1,9-dihydro-6H-purin-6-one)] were, in that order, 1.1 °C, 4.6 °C and 1.2 µM.
As to `Nc1ncnc2c1ncn2[C@H]1CC2OP(=O)(O)OC[C@H]3C[C@@H](n4cnc5c(N)ncnc54)CC3OP(=O)(O)OC[C@H]2C1` (stereo partly drawn) [Compound 125, (2R,3aS,7aR,9R,10aS,14aR)-2,9-bis(6-amino-9H-purin-9-yl)-5,12-dihydroxydodecahydrodicyclopenta[d,j][1,3,7,9]-tetraoxa[2,8]diphosphacyclododecine 5,12-dioxide], the thermal shift (ΔTm) at 150 µM on WT STING [1] was found to be 0.7 °C; at AQ STING (G230A-R293Q), 5.1 °C. Also, at WT STING [2], the half-maximal effective concentration (EC50) is 13.2 µM.

As usually defined, the ΔTm is the change in melting temperature against a reference sample. Usually EC50 stands for the midpoint of the concentration-response curve.
